# Measurements published in US10800812B2, “Compstatin analogs with increased solubility and improved pharmacokinetic properties” (The Trustees of the University of Pennsylvania, priority 2018, dated 2020).
# How the values were obtained:
# human C3b = target: T1, human C3b (Homo sapiens, UniProt P01024); assay: SPR binding affinity and kinetics with C3b; details: 25° C., 1:1 Langmuir model; read-out: ka, association constant
# T1 construct: purchased Complement Technology, Inc., Tyler, Tex
# [1] = Lys cleavage fragments in NHP plasma after s.c. injection (UPLC-ESI-MS); format: in vivo, cynomolgus monkeys; details: 4 h after the s.c. injection of Cp40-KKK, one monkey
# [2] = test system: classical pathway activation (C3b deposition); assay: Classical pathway activation ELISA (C3b deposition) with or without rabbit vitreous; format: biochemical, human; details: in the absence of vitreous
# Description: An alternative explanation to the one presented above is that the vitreous contains additional unidentified factors that associate with the Cp40-KKK analog. To investigate whether an unidentified vitreous factor impacts the complement inhibitory activity of lysine containing compounds, complement activation assays were performed using vitreous samples. Briefly, human plasma was incubated with OVA-anti-OVA immune-complexes in the presence of serial dilutions of the Cp40-based analogs mixed with rabbit vitreous. Levels of classical pathway activation (C3b deposition) were determined by ELISA using a polyclonal anti-human C3 antibody conjugated with HRP (MP Biomedicals, Solon, Ohio) (FIG. 20).
# [3] = Solubility of Cp40-based analogs in PBS; details: for pH of the peptide solution in PBS: at the solubility concentration; for solubility: PBS, pH 7.4, Conc. (solubility in PBS), PBS (pH 7.4)
# [4] = Pharmacokinetics after single i.v. injection; parameters: species or system cynomolgus monkeys; details: cynomolgus monkey, in vivo, iv
# Description: In vivo pharmacokinetic studies were conducted, in which cynomolgus monkeys were administered single i.v. injections of mPEG(1k)-Cp40, mPEG(3k)-Cp40, Cp40-KK, or Cp40-KKK.
# [5] = Residence time in the vitreous after intravitreal injection (WES / SPR competition assay); format: in vivo, cynomolgus monkeys; details: single i.v.t. injection 0.5 mg; days 14-90
# Description: To determine the residence time of mPEG(3k)-Cp40, mPEG(1k)-Cp40, Cp40-KK, and Cp40-KKK in the vitreous of cynomolgus macaques, these Cp40-based analogs were administered intravitreally (i.v.t.) to the animals after induction of light ketamine anesthesia (10-15 mg/kg, by intramuscular injection (i.m.)) and dilation of the pupils with tropicamide/phenylephrine ophthalmic solution (see Table 6 for study design).
# For i.v.t. injection, the cynomolgus monkeys were anesthetized with a combination of ketamine (15-25 mg/kg, i.m.) and xylazine (2 mg/kg, i.m.) and the eye was cleaned with povidone-iodine solution. After application of oxybuprocaine hydrochloride solution (Benoxil® ophthalmic solution 0.4%) to the cornea as a local anesthetic, the Cp40-based analogs were administered to the animals by i.v.t. injection into either the right (G1, G3) or left (G2, G4) eye of each animal. Immediately following each injection, a single topical dose of 0.5% levofloxacin was administered. After i.v.t. injection of mPEG(3k)-Cp40, mPEG(1k)-Cp40, Cp40-KK, and Cp40-KKK, vitreous fluid samples (about 50 μL each) were withdrawn from Cp40-based analog-treated eyes on days 14, 28, 42, (G1, G2, G3, G4), 56, 73, 90 (G1, G2) (this was done either three times or six times). Samples were collected on ice and stored in a deep freezer (−79.3 to −68.5° C.) until further analysis. On day 73 and 90, about 100 μL of vitreous fluid from G1 and G2 were withdrawn. Presence and concentration of the Cp40-based analogs was determined using either the simple western technology (WES, ProteinSimple, San Jose, Calif.), or surface plasmon resonance (SPR)-based real-time measurement of binding kinetics on a Cp40-KKK immobilized chip (see detailed methods below). Similar results with regard to the intravitreal residence time and concentration levels of the test compounds were obtained regardless of the quantification method selected.
# To quantify the levels of all test compounds in vitreous samples collected at different time points following i.v.t. injection (see FIG. 15), WES analysis was performed on a WES instrument (ProteinSimple, San Jose, Calif.) using a 2 to 40 kDa Separation Module and Anti-Rabbit Detection Module according to the manufacturers' instructions. In brief, undiluted eye vitreous samples were mixed with a Fluorescent Master Mix and heated at 95° C. for 5 min. The samples, blocking reagent, primary antibodies (in house developed anti-Cp40; 1:1000 in blocking reagent), HRP-conjugated secondary antibody (anti-rabbit IgG) and chemiluminescent substrate were pipetted into the plate (part of Separation Module). The used instrument settings were: stacking and separation at 375 V for 27 min; blocking reagent for 30 min, primary and secondary antibody both for 30 min; Luminol/peroxide chemiluminescence detection for ˜15 min (exposures of 5, 15, 30, 60, 120, 240, and 480 s). The resulting electropherograms were evaluated using the Compass software (ProteinSimple, San Jose, Calif.). The following criteria were used to discriminate low peptide signals from background: The peak signal-to-noise (S/N) ratio given by the software must be ≥10, and the peak height/baseline ratio (calculated manually from the peak height and baseline values given by the software) must be equal to or greater than 3. A five-point standard curve of known concentrations (100-2,000 nM) of peptide spiked in rabbit vitreous was used to calculate peptide concentration in the vitreous samples using the Compass software (Compass Software Inc., Atlanta, Ga.). […] Shown in FIG. 15 is a representative standard curve generated using the WES system and bands obtained upon running pre-determined amounts of purified peptide spiked into rabbit vitreous samples.
# To corroborate the WES-based measurements for all test compounds, an SPR-based competition assay was developed for detecting Cp40 and Cp40 analogs in biological samples. […] The samples were heated at 95° C. for 5 min. […]
# physchem = details: pH 7.4, Conc. (solubility in PBS)
# [6] = Pharmacokinetics after single i.m. injection; details: cynomolgus monkey, in vivo, im, 25 mg/kg
# [7] = Pharmacokinetics in NHP plasma after single s.c. injection; details: 2 mg/kg, NHP plasma, two animals
# [8] = single s.c. 2 mg/kg, listed as Cp40-KK (SUM)
# T1 sequence (P01024 23-667 limits assumed): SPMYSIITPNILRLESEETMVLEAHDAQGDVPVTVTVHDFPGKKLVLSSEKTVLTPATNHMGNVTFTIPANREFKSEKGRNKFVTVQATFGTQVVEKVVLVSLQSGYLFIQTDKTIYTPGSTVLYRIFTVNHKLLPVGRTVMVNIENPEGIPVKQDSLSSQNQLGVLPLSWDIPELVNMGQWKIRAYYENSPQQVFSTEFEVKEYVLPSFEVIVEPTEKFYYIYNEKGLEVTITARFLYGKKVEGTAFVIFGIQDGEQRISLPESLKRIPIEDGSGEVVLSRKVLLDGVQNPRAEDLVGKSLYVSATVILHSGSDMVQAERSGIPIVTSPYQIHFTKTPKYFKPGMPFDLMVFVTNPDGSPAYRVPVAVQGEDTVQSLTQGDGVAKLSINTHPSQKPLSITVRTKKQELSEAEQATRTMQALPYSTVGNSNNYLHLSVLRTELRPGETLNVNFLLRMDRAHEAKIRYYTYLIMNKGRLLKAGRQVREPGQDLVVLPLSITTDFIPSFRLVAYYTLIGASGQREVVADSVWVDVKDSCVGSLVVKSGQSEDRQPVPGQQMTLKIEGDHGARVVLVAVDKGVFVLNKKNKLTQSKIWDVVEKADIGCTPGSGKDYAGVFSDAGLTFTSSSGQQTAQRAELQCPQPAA
# T1 sequence (P01024 749-1663 partner limits assumed): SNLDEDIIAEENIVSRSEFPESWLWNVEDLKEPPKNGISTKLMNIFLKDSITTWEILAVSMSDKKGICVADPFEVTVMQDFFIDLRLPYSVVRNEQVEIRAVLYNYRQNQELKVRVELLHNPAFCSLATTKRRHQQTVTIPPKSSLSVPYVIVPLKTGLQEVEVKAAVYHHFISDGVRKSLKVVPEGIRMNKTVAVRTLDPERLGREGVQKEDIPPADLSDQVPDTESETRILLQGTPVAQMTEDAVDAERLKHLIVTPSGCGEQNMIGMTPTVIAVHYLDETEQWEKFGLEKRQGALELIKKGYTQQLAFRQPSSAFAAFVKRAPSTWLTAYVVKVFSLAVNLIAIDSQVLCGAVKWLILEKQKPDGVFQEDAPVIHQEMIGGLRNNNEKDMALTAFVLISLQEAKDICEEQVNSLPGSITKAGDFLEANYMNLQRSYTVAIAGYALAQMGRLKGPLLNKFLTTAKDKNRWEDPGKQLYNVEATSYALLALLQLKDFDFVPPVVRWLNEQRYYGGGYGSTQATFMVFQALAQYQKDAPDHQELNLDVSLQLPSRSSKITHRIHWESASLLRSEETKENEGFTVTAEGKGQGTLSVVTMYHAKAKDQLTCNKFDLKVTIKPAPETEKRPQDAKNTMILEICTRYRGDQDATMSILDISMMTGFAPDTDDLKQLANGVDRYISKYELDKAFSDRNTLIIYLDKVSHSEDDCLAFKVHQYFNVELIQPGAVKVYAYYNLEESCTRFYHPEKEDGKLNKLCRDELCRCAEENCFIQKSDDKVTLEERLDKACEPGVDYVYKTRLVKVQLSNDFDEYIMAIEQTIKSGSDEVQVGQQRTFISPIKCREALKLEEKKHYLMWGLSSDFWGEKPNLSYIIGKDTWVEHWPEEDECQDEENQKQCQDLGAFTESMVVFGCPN
molecule,measurement,setting,value
"CC[C@H](C)[C@H](NC(=O)[C@H](N)Cc1ccc(O)cc1)C(=O)N[C@H]1CSSC[C@@H](C(=O)N(C)[C@H](C(=O)N[C@@H](CCCCN)C(N)=O)[C@@H](C)CC)NC(=O)[C@H](CCCNC(=N)N)NC(=O)[C@H](Cc2c[nH]cn2)NC(=O)[C@H](C)NC(=O)CN(C)C(=O)[C@H](Cc2c[nH]c3ccccc23)NC(=O)[C@H](CC(=O)O)NC(=O)[C@H](CCC(N)=O)NC(=O)[C@H](Cc2cn(C)c3ccccc23)NC(=O)[C@H](C(C)C)NC1=O [Cp40-K, DTyr-Ile-[Cys-Val-Trp(Me)-Gln-Asn-Trp-Sar-Ala-His-Arg-Cys]-mIle-Lys-NH2]",kon,human C3b,1.98e+06 M⁻¹ s⁻¹
same,Cp40-K detectable in plasma,[1],5 µM
same,complement classical pathway inhibitory activity,[2],inhibitory activity in a dose-dependent manner
same,pH of the peptide solution in PBS,[3],7.5
"CC[C@H](C)[C@H](NC(=O)[C@H](N)Cc1ccc(O)cc1)C(=O)N[C@H]1CSSC[C@@H](C(=O)N(C)[C@H](C(=O)N[C@@H](CCCCN)C(=O)N[C@@H](CCCCN)C(N)=O)[C@@H](C)CC)NC(=O)[C@H](CCCNC(=N)N)NC(=O)[C@H](Cc2c[nH]cn2)NC(=O)[C@H](C)NC(=O)CN(C)C(=O)[C@H](Cc2c[nH]c3ccccc23)NC(=O)[C@H](CC(=O)O)NC(=O)[C@H](CCC(N)=O)NC(=O)[C@H](Cc2cn(C)c3ccccc23)NC(=O)[C@H](C(C)C)NC1=O [Cp40-KK, DTyr-Ile-[Cys-Val-Trp(Me)-Gln-Asn-Trp-Sar-Ala-His-Arg-Cys]-mIle-Lys-Lys-NH2]",kon,human C3b,3.94e+06 M⁻¹ s⁻¹
same,Lys cleavage in plasma upon i.v. injection,[4],metabolized to minimal amounts of Cp40-K
same,half-life,[4]; single i.v. injection 2 mg/kg,49.2 h
same,detection in the vitreous at time points post-injection,[5],no longer detected on day 90
same,complement classical pathway inhibitory activity,[2],inhibitory activity in a dose-dependent manner
same,solubility,physchem,> 245 mg/mL
same,half-life,[6],~192 h
same,AUC(0-t),"[7]; male, cynomolgus monkey, plasma, sc, AUC0-t (0-120 h), single s.c. 2 mg/kg",329 µM·h
same,AUC(0-inf),"[7]; male, cynomolgus monkey, plasma, sc, AUCinf, single s.c. 2 mg/kg",597 µM·h
same,Cmax,"[7]; male, cynomolgus monkey, plasma, sc, Cmax, single s.c. 2 mg/kg",12.9 µM
same,half-life,"[7]; male, cynomolgus monkey, plasma, sc, t1/2, single s.c. 2 mg/kg",145 h
same,Tmax,"[7]; male, cynomolgus monkey, plasma, sc, tmax, single s.c. 2 mg/kg",1 h
same,t1/2,[7]; single s.c. 2 mg/kg,276 h
same,AUC0-t (0-120 h),[7]; [8],257 µM·h
same,AUCinf,[7]; [8],755 µM·h
same,Cmax,[7]; [8],9.26 µM
CC[C@H](C)[C@H](NC(=O)[C@@H](Cc1ccc(O)cc1)NC(=O)CCOCCOCCOCCOCCOCCOCCOCCOCCOCCOCCOCCOC)C(=O)N[C@H]1CSSC[C@@H](C(=O)N(C)[C@H](C(N)=O)[C@@H](C)CC)NC(=O)[C@H](CCCNC(=N)N)NC(=O)[C@H](Cc2c[nH]cn2)NC(=O)[C@H](C)NC(=O)CN(C)C(=O)[C@H](Cc2c[nH]c3ccccc23)NC(=O)[C@H](CC(=O)O)NC(=O)[C@H](CCC(N)=O)NC(=O)[C@H](Cc2cn(C)c3ccccc23)NC(=O)[C@H](C(C)C)NC1=O [mPEG(528)-Cp40],kon,human C3b,1e+06 M⁻¹ s⁻¹
same,solubility,[3],2.3 mg/mL
CC[C@H](C)[C@H](NC(=O)[C@@H](Cc1ccc(O)cc1)NC(=O)CCOCCOCCOCCOCCOCCOCCOCCOCCOCCOCCOCCOCCOCCOCCOCCOCCOCCOCCOCCOCCOCCOCCOCCOC)C(=O)N[C@H]1CSSC[C@@H](C(=O)N(C)[C@H](C(N)=O)[C@@H](C)CC)NC(=O)[C@H](CCCNC(=N)N)NC(=O)[C@H](Cc2c[nH]cn2)NC(=O)[C@H](C)NC(=O)CN(C)C(=O)[C@H](Cc2c[nH]c3ccccc23)NC(=O)[C@H](CC(=O)O)NC(=O)[C@H](CCC(N)=O)NC(=O)[C@H](Cc2cn(C)c3ccccc23)NC(=O)[C@H](C(C)C)NC1=O [mPEG(1056)-Cp40],kon,human C3b,720000 M⁻¹ s⁻¹
same,solubility,[3],137 mg/mL
mPEG(1k)-Cp40: N-terminus of Cp40 coupled to polydisperse PEG chain of 1 kDa via amide coupling,AUC0-120 h,[4],304.4 to 312 µM·h
same,detection in the vitreous at time points post-injection,[5],detected at day 14 post injection but not in later time points
mPEG(2k)-Cp40: N-terminus of Cp40 coupled to polydisperse PEG chain of 2 kDa via amide coupling,pH of the peptide solution in PBS,[3],7.5
